# Measured values taken from publication PMC4595737, “Cyclic diguanylate monophosphate directly binds to human siderocalin and inhibits its antibacterial activity” (Nature Communications, 2015).
# Tests used:
# Type in all cases: binding
# STING = molecular target: T1, STING (Homo sapiens, UniProt Q86WV6); assay: UV cross-linking with c-di-[…]GMP, SDS-PAGE autoradiography (STING as positive control)
# T1 construct: gene STING1
# Siderocalin (LCN2) [1] = molecular target: T2, Siderocalin (LCN2) (Homo sapiens, UniProt P80188); assay: ITC ([…], n=[…]); UV cross-linking with c-di-[…]GMP and cold competition
# T2 construct: recombinant human LCN2 (rLCN2) without a signal peptide fragment
# T2 sequence (P80188 21-198): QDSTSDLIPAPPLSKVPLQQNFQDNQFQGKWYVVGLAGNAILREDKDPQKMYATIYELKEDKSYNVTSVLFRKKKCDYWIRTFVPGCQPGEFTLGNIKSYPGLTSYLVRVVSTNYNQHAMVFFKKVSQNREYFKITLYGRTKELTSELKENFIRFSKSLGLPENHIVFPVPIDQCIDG
# Siderocalin (LCN2) [2] = molecular target: T2, Siderocalin (LCN2); assay: ITC; competition with c-di-[…]GMP cross-linking
# [3] = molecular target: T3, Siderocalin (LCN2), rLCN2-W79A (Homo sapiens, UniProt P80188, W99A); assay: ITC
# T3 construct: recombinant human LCN2 (rLCN2) without a signal peptide fragment
# T3 sequence (P80188 21-198 W99A): as the sequence (P80188 21-198) above, with W79A counted along it
# T1 sequence (Q86WV6 whole entry): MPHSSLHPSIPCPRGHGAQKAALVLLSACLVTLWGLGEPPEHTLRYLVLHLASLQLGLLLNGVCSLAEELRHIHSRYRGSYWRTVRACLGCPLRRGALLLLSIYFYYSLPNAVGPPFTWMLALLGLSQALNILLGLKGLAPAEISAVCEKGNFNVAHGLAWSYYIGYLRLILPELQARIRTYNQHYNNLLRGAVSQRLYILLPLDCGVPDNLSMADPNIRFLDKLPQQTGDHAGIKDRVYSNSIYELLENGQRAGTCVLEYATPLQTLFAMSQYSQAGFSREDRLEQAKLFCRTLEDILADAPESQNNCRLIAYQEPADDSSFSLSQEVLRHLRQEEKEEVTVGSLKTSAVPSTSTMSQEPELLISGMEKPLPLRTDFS
Kd (Siderocalin (LCN2) [1]),SMILES,"UV cross-linking with c-di-[32P]GMP, SDS-PAGE autoradiography (STING as positive) (STING)",Kd (Siderocalin (LCN2) [2]),Kd [3]
1630 ± 50 nM,Nc1nc2c(ncn2[C@@H]2O[C@@H]3COP(=O)(O)O[C@H]4[C@@H](O)[C@H](n5cnc6c(=O)[nH]c(N)nc65)O[C@@H]4COP(=O)(O)O[C@H]3[C@H]2O)c(=O)[nH]1 [c-di-GMP],"STING, as a positive control, could clearly bind to the second messenger as indicated by an autoradiograph signal",,
,O=C(N[C@H]1COC(=O)[C@@H](NC(=O)c2cccc(O)c2[O-])COC(=O)[C@@H](NC(=O)c2cccc(O)c2[O-])COC1=O)c1cccc(O)c1[O-].[Fe+3] [ferric enterobactin],,240 ± 30 nM,250 ± 50 nM
